We go through 19 compounds from publication PMC5442318, “Hundreds of dual-stage antimalarial molecules discovered by a functional gametocyte screen” (Nature Communications, 2017).

Structures are written as SMILES. Where two headings read alike, the source gives them in different places.

Data set [1] relates to P. falciparum stage V female gametocytes. Briefly: P. falciparum female gametocyte activation assay (Pf FGAA), 24 h or 48 h preincubation, Pfs25 expression readout. The class given is cell-based, Plasmodium falciparum NF54. Particulars: for Pf FGAA classification: SLOW / FAST / GAMETE from activity at 48h, 24h, 0h incubation. The method, boiled down: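 Purified stage V gametocytes from P. falciparum NF54 gametocyte cultures were exposed to compounds for 24 h or 48 h at 37 °C under 3% O2/5% CO2, then activated by temperature drop plus xanthurenic acid. Activated females were stained with Cy3-anti-Pfs25 (0.5 μg ml^−1) for 24 h at 26 °C and counted by high-content imaging; pIC50 by nonlinear regression.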

The test system of data set [2] is P. falciparum female gametes. The data set can be described thus: Pf FGAA with compounds added 30 min after triggering gametocyte activation (gamete-targeting). The data set is classed as cell-based, Plasmodium falciparum NF54. Particulars: 0h incubation time.
The subject of data set [3] is P. falciparum stages IV–V gametocytes. The data set can be described thus: Gametocytocidal ATP-depletion assay (gametocyte ATP bioluminescence). The data set is classed as cell-based, Plasmodium falciparum. The method, boiled down:
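Purified stage IV–V gametocytes (12,500/well) incubated with compound for 48 h at 37 °C under 3% O2/5% CO2. ATP measured by BacTiter-Glo luminescence as a viability surrogate; hits tested at 2 μM single concentration.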

In a further data set the test system is HepG2 cells. Briefly: HepG2 cytotoxicity assay. The data set is classed as cell-based. To be noted: mean. The method, boiled down: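 After compound incubation, plates and CellTiter-Glo reagent were brought to room temperature for 30 min. The reagent was then added, and luminescence was read after a 10 min room-temperature stabilization.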
Data set [4] concerns P. falciparum asexual blood stages. To be noted: cited from earlier work; for IC50: read-out: Pf Asexual blood stages XC50.
The mark [5] stands for this setting: 24h incubation time, read-out: Pf FGAA IC50 (µM) 24h.
The mark [6] stands for this setting: mean, read-out: Gametocytes mean Pf FGAA IC50.
The mark [7] stands for this setting: TCAMS data, ref 1 (Gamo et al., 2010).
[8] abbreviates: TCAMS data, ref 1 (Gamo, F. J. et al., Nature 465, 305-310, 2010).
Setting [9] is: P. falciparum female gametocytes, mean, read-out: Gametocytes mean Pf FGAA IC50.
The mark [10] stands for this setting: TCAMS asexual blood stage data, ref 1 (Gamo, F. J. et al., Nature 465, 305-310, 2010).

`CC(=O)Nc1ccc2[nH]cc(C3CCN(CC4CCC(NC(=O)/C=C/c5ccc(Cl)c(Cl)c5)CC4)CC3)c2n1` (stereo not drawn) [TCMDC-140114]: the IC50 was 15.5 µM in data set [1] (setting [5]), 1.74 µM in data set [1] (setting [6]), more than 20 µM in data set [2] and 260 nM in data set [4] (setting [7]). For the same compound, the “Pf FGAA classification” value in data set [1] was “SLOW”. Further, the “Gametocytes mean ATP inhibition at 2µM (%)” value in data set [3] is -7.40%. Further, the “HepG2 cells mean TOX50” value in the data set with HepG2 cells came out at 13.49 µM. Further, the “Pf Asexual stages XC50” value in data set [4] (setting [8]) is 260 nM.
For `Nc1ccc2[nH]cc(C3CCN(CC4CCC(NC(=O)/C=C/c5ccc(Cl)c(Cl)c5)CC4)CC3)c2n1` (stereo not drawn) [TCMDC-140064], the IC50 is 6.18 µM in data set [1] (setting [5]), 0.69 µM in data set [1] (setting [6]), more than 20 µM in data set [2] and 730 nM in data set [4] (setting [7]). The “Pf FGAA classification” value in data set [1] is “SLOW”. Also, the “Gametocytes mean ATP inhibition at 2µM (%)” value in data set [3] was -8.60%. The “HepG2 cells mean TOX50” value with HepG2 cells is given as 12.59 µM. Besides, the “Pf Asexual stages XC50” value in data set [4] (setting [8]) is 730 nM.
`Cc1cccc2nc(-c3ccc(-c4ccc(CNCCN5CCNCC5)cc4)s3)[nH]c12.O=C(O)C(F)(F)F` [TCMDC-132870]: the IC50 in data set [1] (setting [5]) was 18.8 µM; in data set [1] (setting [9]), 1.53 µM; in data set [2], more than 20 µM; in data set [4] (setting [10]) it was 1150 nM. Moreover, the “Pf FGAA classification” value in data set [1] is reported as “SLOW”. In addition, the “Gametocytes mean ATP inhibition at 2µM” value in data set [3] is recorded as 8.76%. Besides, the “HepG2 cells mean TOX50” value in the data set on HepG2 cells (HepG2 cells) stood at 14.29 µM. For the same compound, the “Pf Asexual stages XC50” value in data set [4] (setting [8]) was 1150 nM.
Regarding `N=C(N)Nc1nc(-c2ccc(NCc3ccc(CNc4cccc(-c5csc(NC(=N)N)n5)c4)cc3)cc2)cs1` [TCMDC-140699], the IC50 in data set [1] (setting [5]) is 0.14 µM; in data set [1] (setting [6]), 0.9 µM; in data set [2] it was 0.89 µM; in data set [4] (setting [7]), 310 nM. Besides, in data set [1], the “Pf FGAA classification” value is listed as “GAMETE”. Moreover, the “Gametocytes mean ATP inhibition at 2µM (%)” value in data set [3] is on record as 23.62%. For the same compound, the “HepG2 cells mean TOX50” value in the data set on HepG2 cells is 4.79 µM. The “Pf Asexual stages XC50” value in data set [4] (setting [8]) is 310 nM.
On to `Cc1ccc(-n2c(Sc3ncnc4sccc34)nnc2N2CCCC2)cc1` [TCMDC-125247], for which the IC50 in data set [1] (setting [5]) is more than 20 µM; in data set [1] (setting [9]) it was 0.49 µM; in data set [2], more than 20 µM; in data set [4] (setting [10]), 260 nM. In addition, the “Pf FGAA classification” value in data set [1] is “SLOW”. Besides, the “Gametocytes mean ATP inhibition at 2µM” value in data set [3] was 22.13%. The “HepG2 cells mean TOX50” value in the data set with HepG2 cells (HepG2 cells) is listed as 89.13 µM. For the same compound, the “Pf Asexual stages XC50” value in data set [4] (setting [8]) was 260 nM.
For the compound `CCCCN(CCCC)/C(=N/C(=N)NCc1ccc(Cl)c(Cl)c1)NCCCCCCN/C(=N\C(=N)NCc1ccc(Cl)c(Cl)c1)N(CCCC)CCCC` [TCMDC-131821], the IC50 in data set [1] (setting [9]) is 2.51 µM; in data set [4] (setting [10]) it was 400 nM. The “Gametocytes mean ATP inhibition at 2µM” value in data set [3] stood at 63.54%. Moreover, the “HepG2 cells mean TOX50” value in the data set with HepG2 cells (HepG2 cells) amounted to 13.96 µM.
As to `CC(NCCc1cccc(Cl)c1)C(O)c1ccc(OCCCCCCOc2ccc(C(O)C(C)NCCc3cccc(Cl)c3)cc2)cc1` (stereo not drawn) [TCMDC-139334], the IC50 is 1 µM in data set [1] (setting [6]) and 400 nM in data set [4] (setting [7]). The “Gametocytes mean ATP inhibition at 2µM (%)” value in data set [3] amounted to 41.15%. In addition, in the data set on HepG2 cells, the “HepG2 cells mean TOX50” value turned out to be 2.63 µM.
Turning to `CC(C)Oc1ccc2ccccc2c1CNCCCCCCNCc1c(OC(C)C)ccc2ccccc12.CS(=O)(=O)O` [TCMDC-137965], the IC50 in data set [1] (setting [6]) was 0.95 µM; in data set [4] (setting [7]) it was 610 nM. For the same compound, in data set [3], the “Gametocytes mean ATP inhibition at 2µM (%)” value is reported as 37.88%. The “HepG2 cells mean TOX50” value in the data set with HepG2 cells came out at 1.91 µM.
As to `O=C(O)C(F)(F)F.O=S(=O)(NCCN1CCCC1)c1ccc(-c2ccc(CNC3Cc4ccccc4C3)cc2)s1` [TCMDC-132234], the IC50 is 2.27 µM in data set [1] (setting [9]) and 590 nM in data set [4] (setting [10]). For the same compound, the “Gametocytes mean ATP inhibition at 2µM” value in data set [3] is 1.19%. Also, the “HepG2 cells mean TOX50” value in the data set on HepG2 cells (HepG2 cells) is given as 5.83 µM.
On to `COc1ccc2nc(-c3ccccc3)cc(NCCCNc3cc(-c4ccccc4)nc4ccc(OC)cc34)c2c1.Cl` [TCMDC-137734], for which the IC50 in data set [1] (setting [6]) was 5.6 µM; in data set [4] (setting [7]) it was 120 nM. Moreover, the “Gametocytes mean ATP inhibition at 2µM (%)” value in data set [3] stood at 2.17%. The “HepG2 cells mean TOX50” value in the data set on HepG2 cells came out at 70.79 µM.
On to `CS(=O)(=O)O.FC(F)(F)COc1ccc(CCNCCCCNCCc2ccc(OCC(F)(F)F)c3ccccc23)c2ccccc12` [TCMDC-137282], for which the IC50 in data set [1] (setting [6]) was 0.2 µM; in data set [4] (setting [7]), 650 nM. Besides, the “Gametocytes mean ATP inhibition at 2µM (%)” value in data set [3] stood at 91.27%. In addition, the “HepG2 cells mean TOX50” value in the data set with HepG2 cells is reported as 1.66 µM.
Turning to `COc1ccc(OC)c(-c2cccc(-c3cccc(NC(=O)c4ccc([N+](=O)[O-])o4)c3)n2)c1` [TCMDC-124799], the results for the IC50 in data set [1] (setting [9]) and in data set [4] (setting [10]) were 0.96 µM and 370 nM, respectively. For the same compound, the “Gametocytes mean ATP inhibition at 2µM” value in data set [3] is on record as 25.78%. For the same compound, in the data set on HepG2 cells (HepG2 cells), the “HepG2 cells mean TOX50” value is given as 3.63 µM.
With `COc1cc2ccccc2c(OC)c1CCNCCCCNCCc1c(OC)cc2ccccc2c1OC.CS(=O)(=O)O` [TCMDC-137842], the IC50 in data set [1] (setting [6]) is 1.24 µM; in data set [4] (setting [7]) it was 890 nM. The “Gametocytes mean ATP inhibition at 2µM (%)” value in data set [3] came out at 60.27%. Also, the “HepG2 cells mean TOX50” value in the data set with HepG2 cells turned out to be 4.17 µM.
With `Oc1ccc2[nH]cc(C3CCN(CCCNCc4ccc(-c5ccccc5)cc4)CC3)c2c1` [TCMDC-139047], the IC50 in data set [1] (setting [6]) was 1.44 µM; in data set [4] (setting [7]), 730 nM. For the same compound, the “Gametocytes mean ATP inhibition at 2µM (%)” value in data set [3] was -20.32%. Besides, the “HepG2 cells mean TOX50” value with HepG2 cells is listed as 5.62 µM.
On to `CCCCOc1cc(OC)c2ccccc2c1CCNCCCCNCCc1c(OCCCC)cc(OC)c2ccccc12.CS(=O)(=O)O` [TCMDC-137845], for which the IC50 in data set [1] (setting [6]) was 0.76 µM; in data set [4] (setting [7]), 1050 nM. Moreover, in data set [3], the “Gametocytes mean ATP inhibition at 2µM (%)” value amounted to 95.21%. Moreover, the “HepG2 cells mean TOX50” value in the data set on HepG2 cells came out at 1.97 µM.
Turning to `CCN(CC)/C(=N/C(=N)NCc1ccc(Cl)cc1Cl)NCCCCCCN/C(=N\C(=N)NCc1ccc(Cl)cc1Cl)N(CC)CC` [TCMDC-131819], the IC50 in data set [1] (setting [9]) was 4.75 µM; in data set [4] (setting [10]), 220 nM. Further, the “Gametocytes mean ATP inhibition at 2µM” value in data set [3] is listed as 65.32%. For the same compound, in the data set with HepG2 cells (HepG2 cells), the “HepG2 cells mean TOX50” value turned out to be 36.73 µM.
On to `CS(=O)(=O)O.FC(F)(F)COc1ccc(CNCCCCCCNCc2ccc(OCC(F)(F)F)c3ccccc23)c2ccccc12` [TCMDC-137853], for which the figures for the IC50 in data set [1] (setting [6]) and in data set [4] (setting [7]) were 0.63 µM and 400 nM, respectively. The “Gametocytes mean ATP inhibition at 2µM (%)” value in data set [3] is given as 94.02%. Also, in the data set on HepG2 cells, the “HepG2 cells mean TOX50” value is reported as 2.46 µM.
For `COc1ccccc1-c1nc2c(ccc3nc(N)nc(N)c32)[nH]1` [TCMDC-137976], the figures for the IC50 in data set [1] (setting [6]) and in data set [4] (setting [7]) were 1.13 µM and 180 nM, respectively. For the same compound, the “Gametocytes mean ATP inhibition at 2µM (%)” value in data set [3] was found to be 85.21%. Moreover, the “HepG2 cells mean TOX50” value in the data set on HepG2 cells was found to be 2.87 µM.
Turning to `CC(CNC(=N)c1cccc(C(=N)NCC(C)Oc2cccc(C3CCCCC3)c2)n1)Oc1cccc(C2CCCCC2)c1.Cl` (stereo not drawn) [TCMDC-137455], the IC50 was 1.27 µM in data set [1] (setting [6]) and 920 nM in data set [4] (setting [7]). Besides, the “Gametocytes mean ATP inhibition at 2µM (%)” value in data set [3] turned out to be 92.56%. The “HepG2 cells mean TOX50” value in the data set with HepG2 cells came out at 2.16 µM.
